Laboratory results: ChEMBL document CHEMBL4808200, “Identification of a Series of N-Methylpyridine-2-carboxamides as Potent and Selective Inhibitors of the Second Bromodomain (BD2) of the Bromo and Extra Terminal Domain (BET) Proteins” (J Med Chem, 2021)
≈ marks a conversion by molar mass, not a printed value.

Columns and labels:
[1] = Solubility of the compound in pH 6.5 FaSSIF at […] measured after 16 hrs by HPLC analysis; assay type: physicochemical
[2] = Permeability of the compound at pH 7.4 by artificial membrane permeability assay; assay type: ADME; details: PAMPA, read-out: permeability
[3] = Intrinsic clearance in Wistar Han rat cryopreserved pooled hepatocytes at 0.5 uM measured up to 60 mins by LC-MS/MS analysis; assay type: ADME, tissue-based, Hepatocyte; details: 1 h
[4] = Intrinsic clearance in Beagle dog cryopreserved pooled hepatocytes at 0.5 uM measured up to 120 mins by LC-MS/MS analysis; assay type: ADME, tissue-based, Canis lupus familiaris, Hepatocyte; details: 2 h
[5] = Intrinsic clearance in human cryopreserved pooled hepatocytes at 0.5 uM measured up to 120 mins by LC-MS/MS analysis; assay type: ADME, tissue-based, Hepatocyte; details: 2 h
[6] = Clearance in Wistar Han rat at 1 mg/kg, iv administered as 1 hr infusion or 3 mg/kg, po administered via gavage by LC-MS/MS analysis; assay type: ADME, organism-based; details: in vivo
[7] = Clearance in Beagle dog at 0.5 mg/kg, iv administered as 1 hr infusion on day 1 and day 7 to achieve a target dose of 1 mg/kg by LC-MS/MS analysis; assay type: ADME, organism-based, Canis lupus familiaris; details: in vivo, dose 0.5-1 mg/kg, time 7 day
[8] = Volume of distribution at steady state in Wistar Han rat at 1 mg/kg, iv administered as 1 hr infusion or 3 mg/kg, po administered via gavage by LC-MS/MS analysis; assay type: ADME, organism-based; details: in vivo, read-out: Vdss
[9] = Volume of distribution at steady state in Beagle dog at 0.5 mg/kg, iv administered as 1 hr infusion on day 1 and day 7 to achieve a target dose of 1 mg/kg by LC-MS/MS analysis; assay type: ADME, organism-based, Canis lupus familiaris; details: in vivo, dose 0.5-1 mg/kg, time 7 day, read-out: Vdss
[10] = Oral bioavailability in Wistar Han rat at 3 mg/kg administered via gavage by LC-MS/MS analysis; assay type: ADME, organism-based; details: in vivo
[11] = Oral bioavailability in Beagle dog; assay type: ADME, organism-based, Canis lupus familiaris; details: in vivo
[12] = Unbound clearance in Wistar Han rat at 1 mg/kg, iv administered as 1 hr infusion or 3 mg/kg, po administered via gavage by LC-MS/MS analysis; assay type: ADME, organism-based; details: in vivo
[13] = Unbound clearance in Beagle dog at 0.5 mg/kg, iv administered as 1 hr infusion on day 1 and day 7 to achieve a target dose of 1 mg/kg by LC-MS/MS analysis; assay type: ADME, organism-based, Canis lupus familiaris; details: in vivo, 168 h, dose 0.5-1 mg/kg, time 7 day
[14] = Half life in Wistar Han rat at 1 mg/kg, iv administered as 1 hr infusion or 3 mg/kg, po administered via gavage by LC-MS/MS analysis; assay type: ADME, organism-based; details: in vivo
[15] = Half life in Beagle dog at 0.5 mg/kg, iv administered as 1 hr infusion on day 1 and day 7 to achieve a target dose of 1 mg/kg by LC-MS/MS analysis; assay type: ADME, organism-based, Canis lupus familiaris; details: in vivo, dose 0.5-1 mg/kg, time 7 day
[16] = Clearance in Beagle dog at 0.5 mg/kg, iv administered as 1 hr infusion on day 1 and day 7 to achieve a target dose of 1 mg/kg by LC-MS/MS analysis relative to liver blood flow; assay type: ADME, organism-based, Canis lupus familiaris; details: in vivo, 168 h, dose 0.5-1 mg/kg, time 7 day
[17] = physchem; details: buffer, pH 7.4

solubility at 16 h [1]	Papp [2]	CLH [3]	CLH [4]	CLH [5]	clearance [6]	clearance [7]	Vd [8]	Vd [9]	bioavailability [10]	bioavailability [11]	CL free [12]	CL free [13]	half-life [14]	half-life [15]	QH [16]	chromatographic logD [17]	Structure (SMILES)
112 µg/mL (≈ 319 µM)	21.5 ×10⁻⁶ cm/s	1.4 mL/min/g	0.76 mL/min/g	< 0.45 mL/min/g	22 mL/min/kg	43 mL/min/kg	1.7 L/kg	1.4 L/kg	62%	10%	168 mL/min/kg	122 mL/min/kg	18 min	24 min	80%	3.5	CNC(=O)c1cc(C(=O)N[C@H]2[C@@H]3COC[C@@H]32)cc(Cc2ccccc2)n1
> 1000 µg/mL	18.3 ×10⁻⁶ cm/s	< 0.8 mL/min/g	0.81 mL/min/g	0.8 mL/min/g	29 mL/min/kg	32 mL/min/kg	2.2 L/kg	2.1 L/kg	34%	35%	96 mL/min/kg	102 mL/min/kg	120 min	36 min	–	3.2	CNC(=O)c1cc(C(=O)N[C@H]2C[C@@H]2C)cc([C@@H](O)c2ccccc2)n1
575 µg/mL (≈ 1510 µM)	14.5 ×10⁻⁶ cm/s	1.27 mL/min/g	< 0.65 mL/min/g	< 0.45 mL/min/g	52 mL/min/kg	9.4 mL/min/kg	2.1 L/kg	0.9 L/kg	17%	65%	142 mL/min/kg	23 mL/min/kg	90 min	72 min	–	3.4	CNC(=O)c1cc(C(=O)N[C@H]2[C@@H]3COC[C@@H]32)cc(C(OC)c2ccccc2)n1 (some centres undefined)
